Patent US20080226565A1, “Anticariogenic Proteins & Peptides & Saccharides” (priority 2004, published 2008)

Columns and labels:
Parameters in all cases: species or system human
[1] = In-vivo: radiated tooth samples treated with protector, 5 days in the oral cavity, Knoop hardness; settings: for delta: change of hardness (increase of depth of penetration): radiation + 5 days in oral cavity, 0.1% fluoride or 4% bisphosphonate e-polylysine with CaCl2 and KH2PO4
Excerpt: A device is constructed that can contain up to 6 experimental tooth samples for positioning in the oral cavity. […] The construction of the experimental tooths samples is outlined in chapter C.2.“Results; in-vivo experiments”. In the oral cavity, the tooth samples are positioned in the device in such a way that the enamel surfaces are subjected to physical contact with the tongue and are submerged in saliva. […] In experiments where the device is residing a long time period in the oral cavity (5 days and more), a metal network is positioned just above the surface of the experimental teeth, in order to provide support for the bacteria and stimulate it's growth path. It is also possible to measure the residual protection competence by removing the tooth samples from the oral cavity at the end of the selected residence time and treating them with acid under laboratory conditions.
The device was positioned after the lower jaw in the oral cavity for a period of five days. After removal from the oral cavity, the samples where cleaned and the hardness was measured.
(§1) Tooth samples have been cut in horizontal slices (thickness: 0.3 to 1 mm) with a Leitz 1600 tooth cutter with horizontal cutting blade; the slices are cut manually (with a bore) into small tooth samples that contain a small part of the original tooth surface. The tooth sample is positioned in a small plastic tube, that has been cut from a long plastic tube with 6 mm external diameter. The length of the tube is 3 to 6 mm. The inner part of the tube is filled with a polymer that hardens under light (Photoclearfil Bright; Kuraray). The tooth sample is positioned in the soft polymer inside the tube, in such a way that the original tooth surface is just surfacing above the tube. Finally the polymer is hardened with a light source. The tooth surface is polished with Struers silicon carbid paper (800-4000) and the hardness is measured 5 times on each of the samples under the Letiz Wetzlar microscope (weight on needle: 50 p). Tooth samples with a maximum average depth of penetration of 43 μm are retained for use in the oral cavity.
Tooth samples have been subjected to a radiation dose that is equal to the amount that is given to patients with oral cancer (20 Gray) and have been sterilized. […] A drop of the solution was positioned on the tooth surface and allowed to reside for a period of 30 minutes at 37 C.; the procedure was repeated after removal of the drop with pressured air. Finally the drop was removed, the tooth was dried on air and fixed to the device. In total six tooth samples have been fixed to the device and positioned in the oral cavity after the lower jaw. It remained in the oral cavity for a period of 5 days (day and night). After completion of the required residence time, the device was removed from the oral cavity and the experimental teeth where separated from the device and washed. The hardness was measured according to the Knoop method, six times on each of the tooth samples.
B: the stage at which the hardness of the tooth surface has been measured with the Knoop method. (before the treatment; after radiation and before addition of protector formulation to the surface; after addition of protector to the surface of the tooth and after residing five days in the oral cavity).
B: the stage at which the hardness of the tooth surface has been measured with the Knoop method.

[2] = In-vivo: residual protection, radiated samples after 5 days in oral cavity treated with acetic acid
Excerpt: N: number of tooth samples A: hardness(μm) after radiation and 5 days residence in the oral cavity B: hardness after radiation and 5 days in the oral cavity and treatment with acetic acid

[3] = Determination of the PF-value: Knoop micro hardness of tooth samples coated with product, then saliva and acetic acid (in-vitro)
Excerpt: The capacity to protect teeth against caries can be measured with a technique well known in the art (U.S. Pat. No. 5,279,814). Demineralization with acid, decreases the hardness of the tooth surface. The hardness can be quantified indirectly by measuring the depth of penetration of a needle in the surface (measurement of micro hardness). With this procedure, so called “Knoop” method, the needle is penetrating the surface under the pressure of constant weight and leaves a mark on the surface that allows the calculation of the depth of penetration. The more the tooth is suffering from demineralization, the softer its surface will get and the larger the depth of penetration will be (Knoop F., Peters C. G., Emerson W. B., A Sensitive Pyramidal Diamond Tool for Identation Measurments, J. Res. Natn. Bur. Stand. 23, 39-61 (1939).
The procedure includes the determination of the hardness of a human tooth sample with the Knoop method. Subsequently, the tooth is treated with an experimental protecting product outside the oral cavity.
It is cleaned softly with a paper towel until the coating is invisible.
Subsequently the tooth sample is submerged in a batch of human saliva in order to simulate the conditions in the oral cavity. After removal from the saliva batch (after 30 min.) it is treated with acid over a constant time period of 30 min. at 37° C. The acid is washed away, the tooth is dried on air and the hardness is measured again. The change in hardness (delta P in μm) is obtained by comparing with the hardness of the tooth before treatment. This experiment is repeated on other tooth samples. The effect of acid on unprotected teeth is obtained by carrying out the same procedure but without the use of an experimental protecting product (delta Pa). The protecting capacity (“PF” protection factor) of an experimental protecting compound can be defined as: […]
The ability of a product to protect teeth (PF-value) is determined with the Knoop method. A tooth sample, size 3×3×3 mm is cut from a human tooth and embedded into polymerizing resin in such a way that the surface of the tooth sample appears on the surface of the (resin) cube after the resin has become solid. The surface of the tooth is mechanically polished with rotating silicon carbide abrasive paper (Struers P1200-P2400-P4000) and the micro hardness of the enamel is determined with a Knoop diamant needle (Leitz-Wetzlar;
microdurometer “Durimet”; weight 50 gr; penetration-time: 30 seconds (Collys et al., J. Dent. Res. 1990; 69: 458-462)).
The penetration leaves a mark on the tooth surface, which is related to the depth of penetration (μm) and which can be analyzed under the microscope. […] The determination of the depth of penetration is repeated six times on each of the tooth samples and the average value is calculated. In order to determine the effect of acid on the hardness of the surface, use is made of an acetic acid buffer from Merck (pH 5; 0.1N). One drop of acid is positioned on the enamel for a period of 30 minutes at 37° C. The sample is cleaned with demineralized water and dried. The hardness is measured again according to the method of Knoop. This procedure is repeated 4 times, which means that the sample has been subjected to acid for a total period of two hours.
A graph (Y: penetration depth μm; X: 5 treatment stages) can be made on the basis of 5 average values (each of them based on six measurement), one obtained before treatment with acid, and the other 4 obtained after each of the 4 treatment-stages with acid. A logaritmic regressionline is calculated.

[4] = In-vivo: tooth samples treated with peptide, 12 hours in the oral cavity, then acetic acid, Knoop hardness
Procedure: In another experiment, 126 sterilized tooth samples where treated with a variety of peptides, fixed to the device and positioned after the lower jaw in the oral cavity of 5 volunteers. The device remained in the oral cavity for a period of 12 hours after which the teeth where removed, cleaned and subjected to a drop of acetic acid (0.1N, 30 min., 37° C). Subsequently the acid was removed, the teeth where cleaned and the hardness was measured (Knoop method). The depth of penetration increased 8.82 μm, 5.40 μm, 5.32 μm and 3.77 μm respectively for teeth treated as blanco with 4.2% casein phosphopeptide e-polylysine copolymer, 7.5% phosvitin and with 4.2% bisphosphonylated e-polylysine. The p-values are respectively 0.000, 0.000 and 0.004 for casein phosphopeptide e-polylysine copolymer, bisphosphonylated e-polylysine and phosvitin.
as §1
The tooth-samples are fixed to a device that has been described in the chapter “Description of the invention ( chapter: In-vivo experiments)” and the device is positioned in the oral cavity after the lower jaw.
A drop from a solution containing either, e-polylysine, CPP, bisphoshphonylated e-polylysine, casein phosphopeptide epsilon-polylysine copolymer or partially hydrolysed phosvitin has been positioned at the surface of tooth samples for a period of 30 minutes at 37 C.; the drop was removed and the procedure was repeated once more. All solutions contained also 3.1% CaCl2.2H2O and 1.7% KH2PO4 (except for the one containing e-polylysine).
The tooth surface was cleaned with a soft paper towel until it was visibly clean. Four such tooth samples where fixed to the device and located in the oral cavity behind the lower jaw. They resided in the oral cavity for a period of 12 hours (only to be removed during eating). Subsequently, they where removed, cleaned and the tooth surface was treated with a drop of acetic acid (0.1N, 30 min., 37° C.); the acid was removed, the tooth was washed with deionized water and the hardness was evaluated.
A: type of peptide ingredient in the solution (% on a w/w basis versus water). (*): the teeth where submerged (30 min.) in a saliva batch and dried afterwards on air, before they where treated with a solution that contained bisphosphonylated e-polylysine. B: Average initial hardness of the tooth surface; μm (st. dev.) C: Average hardness after treatment, after residing in the oral cavity and treatment with acid D: The average change in hardness (C−B) E: p-value (against blanco) of the Mann-Whitney statistical test F: the number of tooth samples that where treated with a specific formulation; hardness on each of the tooth samples was measured five times and an average value was calculated; most often 4 tooth samples per person; 5 volunteers participated to the experiment; the 132 tooth samples where randomized into groups (of 4 teeth) with the same average hardness value.

[5] = gel: 4.2% hydroxyethylcellulose, 0.3% NaF, pH 8.8
[6] = 4.2% w/w solution, 12 hours oral cavity, acetic acid 0.1N 30 min

## [F-].[Na+] [Product IV, sodium fluoride, reference compound]
[1]; after protector and 5 days oral cavity, 0.1% NaF or 4% bisphosphonate e-polylysine with CaCl2 and KH2PO4
  Mean hardness (depth of penetration): 42.77 μm
[1]; after radiation, before addition of protector (baseline of group)
  Mean hardness (depth of penetration): 40.97 μm
[1]; after radiation, before addition of the formulation
  delta: change of hardness: −0.13 μm
[1]
  delta: change of hardness (increase of depth of penetration): 1.67 μm
[1]; listed as NaF
  delta: change of hardness (increase of depth of penetration): 1.8 μm
[1]; start, before treatment (baseline of group)
  Mean hardness (depth of penetration): 41.10 μm
[2]; acetic acid 0.1N, 30 min, 37° C. after 5 days in oral cavity
  C: B−A (increase of depth of penetration by acid): 6.5 μm
[2]; acetic acid 0.1N, pH 5, 30 min, 37° C.
  B: hardness after radiation and 5 days in the oral cavity and treatment with acetic acid: 48.4 μm
[2]; samples later treated with acid
  A: hardness after radiation and 5 days residence in the oral cavity: 41.9 μm
[3]; 0.1% product/water w/w
  PF factor: 61
[3]; gel with 0.3% sodium fluoride only
  PF: 68%
[3]; [5]
  PF: 68.1
  delta P: 18.8 μm

## NC(CO)(CO)CO [Product V, Tris(hydroxymethyl)aminoethane, reference compound]
[3]; 3.4% product/water w/w
  PF factor: 35

## Casein phosphopeptide (CPP) [Product 1, reference compound]
[4]; [6]
  C: Average hardness after treatment, after residing in the oral cavity and treatment with acid: 47.60 (2.53) μm
  D: average change in hardness (C−B): 6.78 μm
[4]; group for 4.2% solution, before treatment
  B: Average initial hardness of the tooth surface (st. dev.): 40.82 (0.73) μm

## Natural phosvitin (Phos) [Product 3, reference compound]
[4]; 7.5% w/w solution
  D: average change in hardness (C−B): 5.32 μm

## Partially hydrolyzed phosvitin, (Phos-h) [Product 5]
[3]; versus natural phosvitin
  more protection competence in comparison to natural phosvitin: 25%

## Polymerized (CPP) = (CPP)n [Product 2]
[3]; 7.2% product/water w/w
  PF factor: 58
